Active and inactive are the calls of the source. No cut-off for these calls is given here.
Biological target: T1, Catenin beta-1 (Homo sapiens) (UniProt P35222)
T1 sequence (whole entry): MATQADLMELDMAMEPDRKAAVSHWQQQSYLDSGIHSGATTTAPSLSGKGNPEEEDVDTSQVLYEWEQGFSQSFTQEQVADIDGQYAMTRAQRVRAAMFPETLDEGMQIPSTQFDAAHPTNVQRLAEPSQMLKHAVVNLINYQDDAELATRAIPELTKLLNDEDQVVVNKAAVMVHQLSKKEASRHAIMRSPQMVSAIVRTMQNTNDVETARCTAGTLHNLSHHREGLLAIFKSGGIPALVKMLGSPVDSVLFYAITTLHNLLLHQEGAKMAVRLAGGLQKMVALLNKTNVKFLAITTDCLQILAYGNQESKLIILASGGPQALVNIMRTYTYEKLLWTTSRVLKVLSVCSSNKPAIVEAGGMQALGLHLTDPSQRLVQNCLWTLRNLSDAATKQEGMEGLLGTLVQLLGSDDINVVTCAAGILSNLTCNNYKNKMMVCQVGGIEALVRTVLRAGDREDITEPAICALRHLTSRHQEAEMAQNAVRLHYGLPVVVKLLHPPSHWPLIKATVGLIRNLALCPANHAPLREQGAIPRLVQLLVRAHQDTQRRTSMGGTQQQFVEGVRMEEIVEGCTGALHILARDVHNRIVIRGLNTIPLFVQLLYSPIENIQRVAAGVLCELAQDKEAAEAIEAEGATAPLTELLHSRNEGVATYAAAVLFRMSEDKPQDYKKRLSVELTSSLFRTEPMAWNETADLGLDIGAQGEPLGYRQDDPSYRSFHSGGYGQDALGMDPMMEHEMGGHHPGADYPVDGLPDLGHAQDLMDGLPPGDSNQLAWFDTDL
Assay: Activity against beta […]/Tcf4 complex by PPI assay

| SMILES | Activity |
| --- | --- |
| CC[C@@]1(C)CCC[C@]2(C)[C@H]3C[C@H](OC(C)=O)[C@]4(C)[C@@H](O)C(C(C)=O)=CC[C@H]4[C@]3(C)CC[C@@H]12 | inactive |
| CC[C@@]1(C)CCC[C@]2(C)[C@H]3C[C@H](OC(C)=O)[C@]4(C)[C@@H](C(=O)O)C(C(C)=O)=CC[C@H]4[C@]3(C)CC[C@@H]12 | inactive |
| CC[C@@]1(C)CCC[C@]2(C)[C@H]3C[C@H](OC(C)=O)[C@]45C[C@H](O)[C@H]4C(C(C)=O)=CC[C@H]5[C@]3(C)CC[C@@H]12 | inactive |
| CCC(O)CC(=O)O[C@@H]1C[C@H]2[C@]3(C)CC[C@H]4[C@@](C)(CC)CCC[C@]4(C)[C@H]3C[C@H](OC(C)=O)[C@]2(C)[C@@H](C(=O)O)[C@@H]1C(C)=O (some centres not stated) | inactive |
| CC[C@@]1(C)CCC[C@]2(C)[C@H]3C[C@H](OC(C)=O)[C@]45C[C@@H](O)[C@H]4C(C(C)=O)=CC[C@H]5[C@]3(C)CC[C@@H]12 | inactive |

Second part, the compound after the results:

| Activity | SMILES |
| --- | --- |
| inactive | CC[C@@]1(C)CCC[C@]2(C)[C@H]3C[C@H](OC(C)=O)[C@]4(C)C5=C(C(=O)C[C@H]4[C@]3(C)CC[C@@H]12)C(C)OC5=O (some centres not stated) |
| inactive | CC[C@@]1(C)CCC[C@]2(C)[C@H]3C[C@H](OC(C)=O)[C@@]4(C)C(=CC(=O)C5=C4C(=O)OC5(C)O)[C@]3(C)CC[C@@H]12 (some centres not stated) |
